# Reference: patent US12318358B2, “Probenecid for use in treating epileptic diseases, disorders or conditions” (PARIS SCIENCES ET LETTRES—QUARTIER LATIN, priority 2017, dated 2025)
# Experiments:
# [1] = system: human epileptic cortical slices; assay: Multi-electrode array (MEA) recordings of ictal-like discharges in human epileptic cortical slices in pro-epileptic conditions; format: cell-based
# Description: The resected cortical block was prepared according to Dossi et al. (J Vis Exp. 2014 Oct. 26; (92):e51870). Briefly, post-surgical tissue was transported in a cold solution containing (in mM) 250 D-sucrose, 25 NaHCO3, 3 KCl, 1 CaCl2, 10 MgCl2 and 10 D-glucose, and oxygenated with carbogen (95% O2 and 5% CO2). Meninges, blood clots and vessels were gently removed and transverse cortical slices (400 μm-thick) were cut with a vibratome (HM650V, Microm Microtech, France). They were maintained at 37° C., equilibrated with 95% 02 and 5% CO2, in an interface chamber, continuously perfused with an artificial cerebro-spinal fluid (ACSF) containing (in mM) 124 NaCl, 3 KCl, 26 NaHCO3, 1.6 CaCl2, 1.3 MgCl2 and 10 D-glucose at 2 ml/min, for at least 1 hour before recording.
# Cortical slices were transferred on planar MEA petri dishes (200-30 ITO electrodes, organized in a 12×12 matrix, with internal reference, 30 μm diameter and 200 μm inter-electrode distance; Multichannel Systems, Germany). They were kept in place using a platinum anchor and continuously perfused at a rate of 5-6 ml/min with ACSF.
# Pictures of cortical slices on MEAs were acquired with a video microscope table (MEA-VMT1; Multichannel Systems, Germany) through MEA_Monitor software (Multichannel Systems, Germany) to identify the location of the electrodes relatively to the pial surface of the slices. Data were sampled at 10 kHz and the slice activity was recorded at 37° C. by a MEA2100-120 system (bandwidth 1-3000 Hz, gain 5×; Multichannel Systems, Germany) through MC_Rack 4.5.1 software (Multichannel systems, Germany) The activity of the slices was recorded in ACSF containing (in mM) 124 NaCl, 3 KCl, 26 NaHCO3, 1.6 CaCl2, 1.3 MgCl2 and 10 D-glucose (Ct ACSF) and in high potassium, magnesium-free pro-epileptic ACSF containing (in mM) 6 KCl, 0 Mg^2+ (6K 0Mg-ACSF).
# To investigate whether probenecid medication could be used as a treatment for epileptic seizures, the electrophysiological activity of human epileptic cortical slices was recorded in pro-epileptic conditions, before and after probenecid administration (1 mM, 30 minutes).
# [2] = system: kainate (KA) mouse model of chronic temporal lobe epilepsy; assay: Telemetric EEG recording of spontaneous seizures in kainate (KA) mouse model of chronic temporal lobe epilepsy; format: in vivo, C57BL/6j male mice; details: for Seizure duration / Seizure frequency: 200 mg/kg i.p. single injection, n = 5
# Description: Six weeks old C57BL/6j male mice were injected unilaterally with kainate (KA; 0.05 μl, 20 mM in saline) at a rate of 0.5 μl/min in the CA1 area of the right hippocampus (−2 mm anteroposterior, +1.5 mm lateral, −1.4 mm dorso-ventral) by mean of a stereotaxic apparatus and a cannula (0.29 mm diameter) connected to a precision pump. Mice were then left 3 weeks for settling of the chronic epileptic phenotype.
# EEG experiments were carried out using wireless ETA-F 10 transmitters (DataSciences International, USA) for chronic EEG recording and video monitoring 3 weeks after KA injection. After anesthesia (ketamine, 95 mg/kg; xylazine, 10 mg/kg; i.p.), a 1 cm midline sagittal incision was made starting above the skull midline and extending along the neck to create a pocket for subcutaneous placement of the transmitter along the dorsal flank of the animal. The recording flexible electrodes (stereotaxic coordinates: −2 mm anteroposterior, +1.5 mm and −1.5 mm lateral) were implanted subdurally through small holes drilled in the skull and held in place with dental cement. Mice were implanted with wireless ETA-F10 transmitters 2 weeks after the KA injection and were allowed to recover for 7 days before recording.
# EEG signal was collected through DSI radiofrequency receivers placed under each cage. EEG data were acquired at a sampling rate of 200 Hz using the DSI Dataquest A.R.T. system (version 4.33). To assess therapeutic potential of probenecid, KA mice were recorded with ETA-F10 DSI EEG electrodes for 48 h in their home cage, injected with probenecid (200 mg/kg in corn oil, Sigma-Aldrich; i.p.) and recorded for 24 hours post-treatment. Analysis of seizures was performed using the NeuroScore software (Data Sciences International, USA); seizures were detected on the EEG as spike trains with a minimal amplitude of 1.5× baseline and a minimal duration of 5 s at a frequency ≥1 Hz (Bergstrom et al., Sci Rep. 2013; 3:1483. doi: 10.1038/srep01483). Artifacts were automatically detected using a high detection threshold and removed manually.
# To further assess the therapeutic potential of probenecid, we tested the in vivo effect of probenecid i.p. in a kainate (KA) mouse model of chronic temporal lobe epilepsy. To do so, electroencephalogram (EEG) of KA mice were recorded before (48 hours) and after (24 hours) probenecid administration (200 mg/kg) (FIG. 1C).
# [3] = probenecid 1 mM, 30 minutes, pro-epileptic ACSF (6K 0Mg), n = 6 slices
# [4] = 20-24 hours post-treatment, single injection 200 mg/kg i.p.
smiles,measurement,setting,value
"CCCN(CCC)S(=O)(=O)c1ccc(C(=O)O)cc1 [Probenecid, 4-(dipropylsulfamoyl)benzoic acid]",Effect on IDs (FIG. 1A example recording),"[1]; PBN 1 mM, 30 min, PIDs do not disappear",disappear
same,human cortical slices in which ictal-like discharges (IDs) were fully inhibited,"[1]; probenecid 1 mM, 30 minutes",5 out of 6
same,ID duration,[1]; [3],7.59 ± 7.59 s
same,ID frequency,[1]; [3],0.03 ± 0.03 IDs/min
same,ID duration in the remaining slice,"[1]; probenecid 1 mM, 30 minutes, the one slice not fully inhibited",halved
same,Seizure duration,[2]; 4-8 h post-treatment,no seizure detected
same,Seizure frequency,[2]; 4-8 h post-treatment,no seizure detected
same,Effect on spontaneous seizures,"[2]; 4 to 8 hours post-treatment, single injection 200 mg/kg i.p., in all mice tested",completely blocked
same,Duration of reappeared seizures versus pre-treatment,[2]; [4],significantly shorter duration
same,Mice in which seizures reappeared,[2]; [4],2 of 5
same,Seizure duration,[2]; 20-24 h post-treatment,3.6 ± 2.25 s
same,Seizure frequency,[2]; 20-24 h post-treatment,1.2 ± 0.97 seizure/4 h
